From patent US11999715B2, “ASK1 inhibiting agents” (BIOGEN MA INC., priority 2018, dated 2024)

Assays:
ASK1/MAP3K5 = target: T1, ASK1/MAP3K5 (Homo sapiens, UniProt Q99683); test: ASK1/MAP3K5 kinase assay by Reaction Biology Corp. (headed ASK1 TR-FRET Assay); type: biochemical; details: 20 μM myelin basic protein, 10 μM ATP
T1 sequence (Q99683 1-1374): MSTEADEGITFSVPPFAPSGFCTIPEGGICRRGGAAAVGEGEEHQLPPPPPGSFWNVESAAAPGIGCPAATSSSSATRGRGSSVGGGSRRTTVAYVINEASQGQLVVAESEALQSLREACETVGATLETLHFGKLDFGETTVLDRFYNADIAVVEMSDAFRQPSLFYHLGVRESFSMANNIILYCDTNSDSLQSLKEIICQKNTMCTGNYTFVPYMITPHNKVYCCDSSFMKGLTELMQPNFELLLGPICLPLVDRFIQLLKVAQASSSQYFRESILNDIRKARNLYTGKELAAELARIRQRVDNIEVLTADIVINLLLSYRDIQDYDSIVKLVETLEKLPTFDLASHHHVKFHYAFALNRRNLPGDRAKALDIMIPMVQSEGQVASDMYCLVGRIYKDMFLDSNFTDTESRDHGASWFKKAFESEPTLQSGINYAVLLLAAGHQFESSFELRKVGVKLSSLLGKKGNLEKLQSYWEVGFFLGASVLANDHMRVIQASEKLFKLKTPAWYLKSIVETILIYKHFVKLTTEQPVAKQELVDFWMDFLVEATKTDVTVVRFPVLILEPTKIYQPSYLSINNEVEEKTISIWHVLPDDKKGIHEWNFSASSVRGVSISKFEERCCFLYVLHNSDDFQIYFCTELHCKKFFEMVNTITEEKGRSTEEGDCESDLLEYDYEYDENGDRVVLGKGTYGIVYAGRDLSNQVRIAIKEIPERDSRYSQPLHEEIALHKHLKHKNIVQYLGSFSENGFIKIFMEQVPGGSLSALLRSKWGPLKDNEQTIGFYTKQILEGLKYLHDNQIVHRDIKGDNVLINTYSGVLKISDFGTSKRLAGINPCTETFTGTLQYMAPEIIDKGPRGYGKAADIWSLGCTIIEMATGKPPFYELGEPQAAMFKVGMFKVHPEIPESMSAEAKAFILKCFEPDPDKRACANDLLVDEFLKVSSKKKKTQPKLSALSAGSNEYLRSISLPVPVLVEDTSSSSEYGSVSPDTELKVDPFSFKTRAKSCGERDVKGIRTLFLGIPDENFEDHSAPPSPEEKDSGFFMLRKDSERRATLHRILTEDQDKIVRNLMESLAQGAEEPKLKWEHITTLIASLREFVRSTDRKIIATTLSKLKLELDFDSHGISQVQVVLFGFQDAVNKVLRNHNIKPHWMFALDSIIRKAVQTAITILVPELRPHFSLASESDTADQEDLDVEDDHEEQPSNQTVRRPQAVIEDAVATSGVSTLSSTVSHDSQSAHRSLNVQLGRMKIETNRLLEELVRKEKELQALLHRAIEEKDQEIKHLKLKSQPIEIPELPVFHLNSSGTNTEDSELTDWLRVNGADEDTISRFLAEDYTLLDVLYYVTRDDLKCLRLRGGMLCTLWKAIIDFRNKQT
Experimental: Example 111: Brief Description of ASK1 TR-FRET Assay The protein kinase inhibitory activity of the compounds described herein were tested using the ASK1/MAP3K5 assay by Reaction Biology Corp. (Malvern, PA). The assay procedure follows (and is also available on the Reaction Biology Corp. website). Base Reaction Buffer: 20 mM Hepes (pH 7.5), 10 mM MgCl2, 1 mM EGTA, 0.02% Brij35, 0.02 mg/mL BSA, 0.1 mM Na3VO4, 2 mM DTT, 1% DMSO; Substrate: 20 μM of myelin basic protein (MBP) and 10 μM ATP; Protein kinase: ASK1/MAP3K5. Reaction Procedure: • 1. Prepare indicated substrate in freshly prepared Base Reaction Buffer. • 2. Deliver any required cofactors to the substrate solution. • 3. Deliver indicated kinase into the substrate solution and gently mix. • 4. Deliver compounds in DMSO into the kinase reaction mixture by Acoustic; technology (Echo550; nanoliter range), incubate for 20 minutes at room temperature. • 5. Deliver ^33P-ATP (specific activity 10 μCi/μL) into the reaction mixture to initiate the reaction. • 6. Incubate kinase reaction for 2 hours at room temperature. • 7. Reactions are spotted onto P81 ion exchange paper. • 8. Detect kinase activity by filter-binding method.

[1] = target: T2, ASK1 T838 auto phosphorylation (Homo sapiens, UniProt Q99683); test: ASK1 (AUTO PHOS T838) assay, MSD format, in HEK-293T cells transfected with ASK1-V5; type: cell-based; details: ASK1 T838 auto phosphorylation in HEK-293T cells, 1 hr compound incubation; class symbols
T2 sequence (Q99683 1-1374): T1 sequence (Q99683 1-1374)
Experimental: Example 112: Brief Description of ASK1(AUTO PHOS T838) Assay ASK1 T838 auto phosphorylation was measured in HEK-293T cells using MSD assay format. HEK 293T cells were seeded in 15 cm plates at a density of 18 million cells and 20 mL DMEM with 10% FBS, Pen/Strep media. The plates were incubated at 37° C. overnight. Media on plates was changed to OPTI-MEM, serum free media and cells were transfected with 9 μg of ASK1-V5 tagged full length plasmid using Lipofectamine 2000 (Invitrogen) and the plates were incubated at 37° C. overnight. Cells were trypsinized, counted on Nexcellometer and plated into 96 well tissue culture plates with 100,000 cells/well and 200 μL media. Cells were incubated for 4 hr at 37° C. then ASK1 compounds were added using a HP 300e. Compounds were tested at 20 μM with 3 fold, 10 point dilution points then incubated for 1 hr at 37° C. A lysis buffer (Cell Signaling) was prepared with protease and phosphatase inhibitor and maintained at 4° C. until use. Media from cells was discarded and 120 μL of cold lysis buffer was added to the cells, the plate was shaken 4° C. for 1 hr. Lysate was mixed using Apricot liquid handler; aspirating up and down 16 times at high speed using 50 μL volume. […] Plates were then incubated on a plate shaker overnight at 4° C. Plates were washed 3× with MSD wash buffer and 50 μL of rabbit anti-pASK1 T838 antibody was added to the wells and incubated for 2 hr at room temperature on a plate shaker. Plates were then washed and 50 μL of goat anti-rabbit sulfa-tag (1:500 dilution) was added to wells, and incubated for 1 hr at room temperature on a plate shaker. […] Plates were immediately read on a MSD Instrument Reader where chemoluminescence signal was measured. Data was analyzed using Graph Pad or Genedata, the data was normalized and plotted, % activity versus log of compound concentration. The IC50 values were obtained from a 4 parameter fit. The compounds described herein were tested for in the above cell-based assay.

| Structure (SMILES) | IC50 (ASK1/MAP3K5; class symbols) [µM] | IC50 [1] [µM] | IC50 (ASK1/MAP3K5; class given in words) [µM] |
| --- | --- | --- | --- |
| COc1nn(CC2CC2)cc1C(=O)Nc1cccc(-c2nncn2[C@@H](C)C(F)(F)F)n1 [Example 48, (S)-1-(Cyclopropylmethyl)-3-methoxy-N-(6-(4-(1,1,1-trifluoropropan-2-yl)-4H-1,2,4-triazol-3-yl)pyridin-2-yl)-1H-pyrazole-4-carboxamide] | ≤ 0.1 | ≤ 1 | – |
| CC(C)n1cnnc1-c1cccc(NC(=O)c2cnn(C(C)(C)C)c2)n1 [Example 9, 1-(tert-Butyl)-N-(6-(4-isopropyl-4H-1,2,4-triazol-3-yl)pyridin-2-yl)-1H-pyrazole-4-carboxamide] | 0.1 to 1 | ≤ 1 | – |
| COc1nn(C)cc1C(=O)Nc1cccc(-c2nncn2[C@@H]2CCCNC2)n1 [Example 39, (R)-3-Methoxy-1-methyl-N-(6-(4-(piperidin-3-yl)-4H-1,2,4-triazol-3-yl)pyridin-2-yl)-1H-pyrazole-4-carboxamide] | 1 to 10 | 1 to 10 | – |
| COc1nn(C)cc1C(=O)Nc1cccc(-c2nncn2C2COC2)n1 [Example 107, 3-Methoxy-1-methyl-N-(6-(4-(oxetan-3-yl)-4H-1,2,4-triazol-3-yl)pyridin-2-yl)-1H-pyrazole-4-carboxamide] | – | > 10 | ≥ 10 |
| COc1nn(-c2cncc(C#N)c2)cc1C(=O)Nc1cccc(-c2nncn2C(C)C)n1 [Example 69, 1-(5-Cyanopyridin-3-yl)-N-(6-(4-isopropyl-4H-1,2,4-triazol-3-yl)pyridin-2-yl)-3-methoxy-1H-pyrazole-4-carboxamide] | ≤ 0.1 | ≤ 1 | – |
| COC[C@@H](C)n1cnnc1-c1cccc(NC(=O)c2cn(C)nc2OC)n1 (single isomer, unassigned) [Example 34] | 0.1 to 1 | ≤ 1 | – |
| COc1nn(-c2cccnn2)cc1C(=O)Nc1cccc(-c2nncn2[C@H](C)C(F)(F)F)n1 [Example 86, (R)-3-Methoxy-1-(pyridazin-3-yl)-N-(6-(4-(1,1,1-trifluoropropan-2-yl)-4H-1,2,4-triazol-3-yl)pyridin-2-yl)-1H-pyrazole-4-carboxamide] | 0.1 to 1 | 1 to 10 | – |
| COc1nn(-c2cnccn2)cc1C(=O)Nc1cccc(-c2nncn2[C@H](C)C(F)(F)F)n1 [Example 88, (R)-3-Methoxy-1-(pyrazin-2-yl)-N-(6-(4-(1,1,1-trifluoropropan-2-yl)-4H-1,2,4-triazol-3-yl)pyridin-2-yl)-1H-pyrazole-4-carboxamide] | 0.1 to 1 | 1 to 10 | – |
| COc1nn(CCN2CCOCC2)cc1C(=O)Nc1cccc(-c2nncn2C(C)C)n1 [Example 46, N-(6-(4-Isopropyl-4H-1,2,4-triazol-3-yl)pyridin-2-yl)-3-methoxy-1-(2-morpholinoethyl)-1H-pyrazole-4-carboxamide] | ≤ 0.1 | ≤ 1 | – |
| CC(C)n1cncc1-c1cccc(NC(=O)c2cn(-c3cccnc3)nc2C(F)F)n1 [Example 94, 3-(Difluoromethyl)-N-(6-(1-isopropyl-1H-imidazol-5-yl)pyridin-2-yl)-1-(pyridin-3-yl)-1H-pyrazole-4-carboxamide] | ≤ 0.1 | ≤ 1 | – |
| C[C@H](n1cnnc1-c1cccc(NC(=O)c2cn(C)nc2C(F)F)n1)C(F)(F)F [Example 22, (S)-3-(Difluoromethyl)-1-methyl-N-(6-(4-(1,1,1-trifluoropropan-2-yl)-4H-1,2,4-triazol-3-yl)pyridin-2-yl)-1H-pyrazole-4-carboxamide] | 1 to 10 | 1 to 10 | – |
| COc1nn(C)cc1C(=O)Nc1cccc(-c2nncn2[C@@H](C)C(F)F)n1 (single isomer, unassigned) [Example 27] | ≤ 0.1 | ≤ 1 | – |
| COc1nn(CC(F)(F)F)cc1C(=O)Nc1cccc(-c2nncn2[C@@H](C)C(C)C)n1 [Example 104, (S)-3-Methoxy-N-(6-(4-(3-methylbutan-2-yl)-4H-1,2,4-triazol-3-yl)pyridin-2-yl)-1-(2,2,2-trifluoroethyl)-1H-pyrazole-4-carboxamide] | ≤ 0.1 | ≤ 1 | – |
| COc1nn(C)cc1C(=O)Nc1cccc(-c2cncn2C2CC2)c1 [Example 101, N-(3-(1-cyclopropyl-1H-imidazol-5-yl)phenyl)-3-methoxy-1-methyl-1H-pyrazole-4-carboxamide] | 1 to 10 | > 10 | – |
| COc1nn(C)cc1C(=O)Nc1cccc(-c2nncn2C(C)CO)n1 (racemic) [Example 35, rac-N-(6-(4-(1-Hydroxypropan-2-yl)-4H-1,2,4-triazol-3-yl)pyridin-2-yl)-3-methoxy-1-methyl-1H-pyrazole-4-carboxamide] | ≤ 0.1 | 1 to 10 | – |
| CC(C)n1cnnc1-c1cccc(NC(=O)c2cn(-c3cccnc3)nc2C(F)F)n1 [Example 82, 3-(Difluoromethyl)-N-(6-(4-isopropyl-4H-1,2,4-triazol-3-yl)pyridin-2-yl)-1-(pyridin-3-yl)-1H-pyrazole-4-carboxamide] | ≤ 0.1 | ≤ 1 | – |
| CCOc1nn(C)cc1C(=O)Nc1cccc(-c2nncn2[C@@H](C)C(F)(F)F)n1 [Example 16, (S)-3-Ethoxy-1-methyl-N-(6-(4-(1,1,1-trifluoropropan-2-yl)-4H-1,2,4-triazol-3-yl)pyridin-2-yl)-1H-pyrazole-4-carboxamide] | ≤ 0.1 | ≤ 1 | – |
| COc1nn(-c2cc(C#N)ccn2)cc1C(=O)Nc1cccc(-c2nncn2C(C)C)n1 [Example 65, 1-(4-Cyanopyridin-2-yl)-N-(6-(4-isopropyl-4H-1,2,4-triazol-3-yl)pyridin-2-yl)-3-methoxy-1H-pyrazole-4-carboxamide] | ≤ 0.1 | ≤ 1 | – |
| COc1nn(C)cc1C(=O)Nc1cccc(-c2nncn2[C@@H](C)CO)n1 (single isomer, unassigned) [Example 37] | ≤ 0.1 | 1 to 10 | – |
